Source: the supplement of paper PMC10307832

Tests used:
Assay in all cases: relative viability (nuclei count vs DMSO), 5 days (fraction); higher = more cells survive
ABC-1 = system: ABC-1
In short: (§1)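 Each reported value is a median over duplicate plates. It expresses relative viability: treated-well nuclei count divided by vehicle-well nuclei count. Lung cancer cell lines in 1536-well plates were dosed by pin tool a day after seeding, alone with one drug or with a fixed anchor-drug dose plus five library-drug doses (not always all listed) in √10 steps, and nuclei were counted after 5 days.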

CAL-12T = system: CAL-12T
In short: as §1

ChaGo-K-1 = system: ChaGo-K-1
In short: as §1

HCC-366 = system: HCC-366
In short: as §1

HCC-78 = system: HCC-78
In short: as §1

LC-2-ad = system: LC-2-ad
In short: as §1

LOU-NH91 = system: LOU-NH91
In short: as §1

LU99A = system: LU99A
In short: as §1

NCI-H1395 = system: NCI-H1395
In short: as §1

NCI-H1651 = system: NCI-H1651
In short: as §1

NCI-H1755 = system: NCI-H1755
In short: as §1

NCI-H1793 = system: NCI-H1793
In short: as §1

NCI-H1944 = system: NCI-H1944
In short: as §1

NCI-H2087 = system: NCI-H2087
In short: as §1

NCI-H2170 = system: NCI-H2170
In short: as §1

NCI-H2228 = system: NCI-H2228
In short: as §1

NCI-H2405 = system: NCI-H2405
In short: as §1

NCI-H3122 = system: NCI-H3122
In short: as §1

NCI-H460 = system: NCI-H460
In short: as §1

PC-3 [JPC-3] = system: PC-3 [JPC-3]
In short: as §1

RERF-LC-KJ = system: RERF-LC-KJ
In short: as §1

UMC-11 = system: UMC-11
In short: as §1

SMILES: CCN(CC)CCCCNc1ncc2cc(-c3cc(OC)cc(OC)c3)c(NC(=O)NC(C)(C)C)nc2n1 + N=C(N)NC(=N)NCCc1ccccc1 [Phenformin] (partner 250 µM)
- relative viability (ABC-1; first compound 0.01 µM): 0.24
- relative viability (ABC-1; first compound 0.03162 µM): 0.286
- relative viability (ABC-1; first compound 0.1 µM): 0.256
- relative viability (ABC-1; first compound 0.3162 µM): 0.208
- relative viability (ABC-1; first compound 1 µM): 0.254
- relative viability (CAL-12T; first compound 0.01 µM): 0.595
- relative viability (CAL-12T; first compound 0.03162 µM): 0.582
- relative viability (CAL-12T; first compound 0.1 µM): 0.673
- relative viability (CAL-12T; first compound 0.3162 µM): 0.726
- relative viability (CAL-12T; first compound 1 µM): 0.573
- relative viability (ChaGo-K-1; first compound 0.01 µM): 0.541
- relative viability (ChaGo-K-1; first compound 0.03162 µM): 0.45
- relative viability (ChaGo-K-1; first compound 0.1 µM): 0.585
- relative viability (ChaGo-K-1; first compound 0.3162 µM): 0.47
- relative viability (ChaGo-K-1; first compound 1 µM): 0.474
- relative viability (HCC-366; first compound 0.01 µM): 0.627
- relative viability (HCC-366; first compound 0.03162 µM): 0.666
- relative viability (HCC-366; first compound 0.1 µM): 0.65
- relative viability (HCC-366; first compound 0.3162 µM): 0.622
- relative viability (HCC-366; first compound 1 µM): 0.581
- relative viability (HCC-78; first compound 0.01 µM): 0.646
- relative viability (HCC-78; first compound 0.03162 µM): 0.732
- relative viability (HCC-78; first compound 0.1 µM): 0.663
- relative viability (HCC-78; first compound 0.3162 µM): 0.805
- relative viability (HCC-78; first compound 1 µM): 0.631
- relative viability (LC-2-ad; first compound 0.01 µM): 0.625
- relative viability (LC-2-ad; first compound 0.03162 µM): 0.55
- relative viability (LC-2-ad; first compound 0.1 µM): 0.586
- relative viability (LC-2-ad; first compound 0.3162 µM): 0.629
- relative viability (LC-2-ad; first compound 1 µM): 0.483
- relative viability (LOU-NH91; first compound 0.01 µM): 0.572
- relative viability (LOU-NH91; first compound 0.03162 µM): 0.683
- relative viability (LOU-NH91; first compound 0.1 µM): 0.795
- relative viability (LOU-NH91; first compound 0.3162 µM): 0.797
- relative viability (LOU-NH91; first compound 1 µM): 0.713
- relative viability (LU99A; first compound 0.01 µM): 0.764
- relative viability (LU99A; first compound 0.03162 µM): 0.841
- relative viability (LU99A; first compound 0.1 µM): 1.04
- relative viability (LU99A; first compound 0.3162 µM): 0.772
- relative viability (LU99A; first compound 1 µM): 0.756
- relative viability (NCI-H1395; first compound 0.01 µM): 0.426
- relative viability (NCI-H1395; first compound 0.03162 µM): 0.455
- relative viability (NCI-H1395; first compound 0.1 µM): 0.451
- relative viability (NCI-H1395; first compound 0.3162 µM): 0.431
- relative viability (NCI-H1395; first compound 1 µM): 0.397
- relative viability (NCI-H1651; first compound 0.01 µM): 0.305
- relative viability (NCI-H1651; first compound 0.03162 µM): 0.383
- relative viability (NCI-H1651; first compound 0.1 µM): 0.347
- relative viability (NCI-H1651; first compound 0.3162 µM): 0.316
- relative viability (NCI-H1651; first compound 1 µM): 0.257
- relative viability (NCI-H1755; first compound 0.01 µM): 0.634
- relative viability (NCI-H1755; first compound 0.03162 µM): 0.649
- relative viability (NCI-H1755; first compound 0.1 µM): 0.677
- relative viability (NCI-H1755; first compound 0.3162 µM): 0.675
- relative viability (NCI-H1755; first compound 1 µM): 0.585
- relative viability (NCI-H1793; first compound 0.01 µM): 0.416
- relative viability (NCI-H1793; first compound 0.03162 µM): 0.427
- relative viability (NCI-H1793; first compound 0.1 µM): 0.353
- relative viability (NCI-H1793; first compound 0.3162 µM): 0.341
- relative viability (NCI-H1793; first compound 1 µM): 0.335
- relative viability (NCI-H1944; first compound 0.01 µM): 0.204
- relative viability (NCI-H1944; first compound 0.03162 µM): 0.195
- relative viability (NCI-H1944; first compound 0.1 µM): 0.194
- relative viability (NCI-H1944; first compound 0.3162 µM): 0.202
- relative viability (NCI-H1944; first compound 1 µM): 0.16
- relative viability (NCI-H2087; first compound 0.01 µM): 0.42
- relative viability (NCI-H2087; first compound 0.03162 µM): 0.537
- relative viability (NCI-H2087; first compound 0.1 µM): 0.536
- relative viability (NCI-H2087; first compound 0.3162 µM): 0.522
- relative viability (NCI-H2087; first compound 1 µM): 0.429
- relative viability (NCI-H2170; first compound 0.01 µM): 0.417
- relative viability (NCI-H2170; first compound 0.03162 µM): 0.416
- relative viability (NCI-H2170; first compound 0.1 µM): 0.414
- relative viability (NCI-H2170; first compound 0.3162 µM): 0.413
- relative viability (NCI-H2170; first compound 1 µM): 0.345
- relative viability (NCI-H2228; first compound 0.01 µM): 0.341
- relative viability (NCI-H2228; first compound 0.03162 µM): 0.336
- relative viability (NCI-H2228; first compound 0.1 µM): 0.384
- relative viability (NCI-H2228; first compound 0.3162 µM): 0.346
- relative viability (NCI-H2228; first compound 1 µM): 0.304
- relative viability (NCI-H2405; first compound 0.01 µM): 0.38
- relative viability (NCI-H2405; first compound 0.03162 µM): 0.412
- relative viability (NCI-H2405; first compound 0.1 µM): 0.518
- relative viability (NCI-H2405; first compound 0.3162 µM): 0.427
- relative viability (NCI-H2405; first compound 1 µM): 0.315
- relative viability (NCI-H3122; first compound 0.01 µM): 0.39
- relative viability (NCI-H3122; first compound 0.03162 µM): 0.362
- relative viability (NCI-H3122; first compound 0.1 µM): 0.633
- relative viability (NCI-H3122; first compound 0.3162 µM): 0.367
- relative viability (NCI-H3122; first compound 1 µM): 0.321
- relative viability (NCI-H460; first compound 0.01 µM): 0.536
- relative viability (NCI-H460; first compound 0.03162 µM): 0.567
- relative viability (NCI-H460; first compound 0.1 µM): 0.53
- relative viability (NCI-H460; first compound 0.3162 µM): 0.68
- relative viability (NCI-H460; first compound 1 µM): 0.329
- relative viability (PC-3 [JPC-3]; first compound 0.01 µM): 0.485
- relative viability (PC-3 [JPC-3]; first compound 0.03162 µM): 0.484
- relative viability (PC-3 [JPC-3]; first compound 0.1 µM): 0.487
- relative viability (PC-3 [JPC-3]; first compound 0.3162 µM): 0.498
- relative viability (PC-3 [JPC-3]; first compound 1 µM): 0.449
- relative viability (RERF-LC-KJ; first compound 0.01 µM): 0.389
- relative viability (RERF-LC-KJ; first compound 0.03162 µM): 0.463
- relative viability (RERF-LC-KJ; first compound 0.1 µM): 0.469
- relative viability (RERF-LC-KJ; first compound 0.3162 µM): 0.471
- relative viability (RERF-LC-KJ; first compound 1 µM): 0.469
- relative viability (UMC-11; first compound 0.01 µM): 0.346
- relative viability (UMC-11; first compound 0.03162 µM): 0.353
- relative viability (UMC-11; first compound 0.1 µM): 0.371
- relative viability (UMC-11; first compound 0.3162 µM): 0.343
- relative viability (UMC-11; first compound 1 µM): 0.362
